Source: patent publication US7317115B2, “Mandelates salts of substituted tetracyclic tetrahydrofuran derivatives” (Janssen Pharmaceutica, N.V., priority 2001, dated 2008)
Entries after “also recorded” stand apart in the source; their conditions may differ.

Experiments:
Type in all cases: physicochemical
[1] = Adsorption and desorption of water; conditions: 25° C., different relative humidity
Experimental: The adsorption and desorption of water at 25° C. at different conditions of relative humidity is investigated on an amount of ±10 mg of each salt. The weight change as a function of relative humidity is registered.

[2] = Crystallographic stability (TGA, DSC, IR after storage); conditions: for crystallographic stability: storage two weeks under different relative humidities; as to IR: key: ~Ref: identical with reference
Experimental: The stability of the crystal structure of the salt is studied after storage of the compounds for a period of two weeks at room temperature (RT) under either 5%, 75% and 25° C./60% relative humidity (RH). The samples are analyzed with thermogravimetry (TGA), differential scanning calorimetry (DSC) and infrared spectroscopy (IR).

[3] = Chemical stability (HPLC and visual inspection after storage); conditions: for HPLC Sum of impurities: in % (unit assumed); for chemical stability: storage 2, 4 and 8 weeks under different conditions
Experimental: In the chemical stability test program the salts are stored for periods of 2, 4 and 8 weeks under different conditions. These conditions are 40° C./75% RH, 50° C., daylight, RT/5% RH, RT/75% RH, 25° C./60% RH and artificial light. The mandelate salt and the ditoluoyltartrate salt are also stored 8 hours in 0.3 da ICH light. The compounds are analyzed after storage by HPLC and by visual inspection.

[4] = listed as (+)ditoluoyltartrate salt
[5] = 0.3 da ICH light (2 weeks column; text: 8 hours)

For “B-(2α,3aα,12bβ)-11-fluoro-3,3a,8,12b-tetrahydro-N-methyl-2H-dibenzo-[3,4:6,7]cyclohepta[1,2-b]furan-2 methanamine [Tartrate]”, the “water adsorption/desorption behaviour (weight change as a function of relative humidity)” value ([1]; listed as tartrate salt) was “less stable but the weight change as a function of the relative humidity is very small; also recorded: good adsorption desorption profile”, the Appearance ([2]; 0 days) was “white” and the “DSC Max” value ([2]; 0 days) was 158.8 °C. The “DSC ΔH” value ([2]; 0 days) was 85.9 J/g, the TGA <100° C. ([2]; 0 days) was 0% and the crystallographic stability ([2]; listed as tartrate salt) was “crystallographic stable; also recorded: crystallographically stable”. The Appearance ([2]; two weeks, RT/56% RH) was “white”, the “DSC Max” value ([2]; two weeks, RT/56% RH) was 159.0 °C and the “DSC ΔH” value ([2]; two weeks, RT/56% RH) was 86.2 J/g. For the same substance, the IR ([2]; two weeks, RT/56% RH) was “~Ref”, the TGA <100° C. ([2]; two weeks, RT/56% RH) was 0.1% and the Appearance ([2]; two weeks, RT/75% RH) was “white”. For the same substance, the “DSC Max” value ([2]; two weeks, RT/75% RH) was 159.0 °C, the “DSC ΔH” value ([2]; two weeks, RT/75% RH) was 85.5 J/g and the TGA <100° C. ([2]; two weeks, RT/75% RH) was 0%. For the same substance, the Appearance ([2]; two weeks, RT/<5% RH) was “white”, the “DSC Max” value ([2]; two weeks, RT/<5% RH) was 160.3 °C and the “DSC ΔH” value ([2]; two weeks, RT/<5% RH) was 86.4 J/g. For the same substance, the TGA <100° C. ([2]; two weeks, RT/<5% RH) was 0%, the Appearance ([3]; 25° C./60% RH, 4 weeks) was “white” and the “HPLC Sum of impurities” value ([3]; 25° C./60% RH, 4 weeks) was 0.75. The Appearance ([3]; 25° C./60% RH, 8 weeks) was “white”, the “HPLC Sum of impurities” value ([3]; 25° C./60% RH, 8 weeks) was 0.77 and the Appearance ([3]; 40° C./75% RH, 2 weeks) was “white”. For the same substance, the “HPLC Sum of impurities” value ([3]; 40° C./75% RH, 2 weeks) was 0.72, the Appearance ([3]; 40° C./75% RH, 4 weeks) was “white” and the “HPLC Sum of impurities” value ([3]; 40° C./75% RH, 4 weeks) was 0.83. For the same substance, the Appearance ([3]; 40° C./75% RH, 8 weeks) was “almost white”, the “HPLC Sum of impurities” value ([3]; 40° C./75% RH, 8 weeks) was 0.93 and the Appearance ([3]; 50° C., 2 weeks) was “white”. For the same substance, the “HPLC Sum of impurities” value ([3]; 50° C., 2 weeks) was 0.72, the Appearance ([3]; 50° C., 4 weeks) was “white” and the “HPLC Sum of impurities” value ([3]; 50° C., 4 weeks) was 0.77. The Appearance ([3]; 50° C., 8 weeks) was “almost white”, the “HPLC Sum of impurities” value ([3]; 50° C., 8 weeks) was 0.79 and the Appearance ([3]; Artificial light (2 weeks)) was “white”. The “HPLC Sum of impurities” value ([3]; Artificial light (2 weeks)) was 0.79, the Appearance ([3]; Daylight, 2 weeks) was “white” and the “HPLC Sum of impurities” value ([3]; Daylight, 2 weeks) was 0.75. For the same substance, the Appearance ([3]; Daylight, 4 weeks) was “almost”, the “HPLC Sum of impurities” value ([3]; Daylight, 4 weeks) was 0.85 and the Appearance ([3]; Daylight, 8 weeks) was “slightly”. The “HPLC Sum of impurities” value ([3]; Daylight, 8 weeks) was 0.91, the Appearance ([3]; RT/75% RH, 4 weeks) was “white” and the “HPLC Sum of impurities” value ([3]; RT/75% RH, 4 weeks) was 0.72. The Appearance ([3]; RT/75% RH, 8 weeks) was “white”, the “HPLC Sum of impurities” value ([3]; RT/75% RH, 8 weeks) was 0.80 and the Appearance ([3]; RT/<5% RH, 4 weeks) was “white”. The “HPLC Sum of impurities” value ([3]; RT/<5% RH, 4 weeks) was 0.73, the Appearance ([3]; RT/<5% RH, 8 weeks) was “white” and the “HPLC Sum of impurities” value ([3]; RT/<5% RH, 8 weeks) was 0.75. The Appearance ([3]; Reference (2 weeks)) was “white”, the “HPLC Sum of impurities” value ([3]; Reference (2 weeks)) was 0.72 and the chemical stability ([3]; listed as tartrate salt) was “showed a sensitivity towards 40° C./70% RH and light; also recorded: shows sensitivity towards higher humidities and light”.

With “B-(2α,3aα,12bβ)-11-fluoro-3,3a,8,12b-tetrahydro-N-methyl-2H-dibenzo-[3,4:6,7]cyclohepta[1,2-b]furan-2 methanamine [(+)ditoluoyltartrate]” the “water adsorption/desorption behaviour (weight change as a function of relative humidity)” value [1, 4] was “less stable but the weight change as a function of the relative humidity is very small; also recorded: good adsorption desorption profile”, the Appearance ([2]; 0 days) was “white” and the “DSC Max” value ([2]; 0 days) was 173.7 °C. For the same substance, the “DSC ΔH” value ([2]; 0 days) was 71.9 J/g, the TGA <100° C. ([2]; 0 days) was 0.2% and the crystallographic stability [2, 4] was “crystallographic stable; also recorded: crystallographically stable”. For the same substance, the Appearance ([2]; two weeks, 25° C./60% RH) was “white”, the “DSC Max” value ([2]; two weeks, 25° C./60% RH) was 177.6 °C and the “DSC ΔH” value ([2]; two weeks, 25° C./60% RH) was 74.7 J/g. For the same substance, the IR ([2]; two weeks, 25° C./60% RH) was “~Ref”, the TGA <100° C. ([2]; two weeks, 25° C./60% RH) was 0.1% and the Appearance ([2]; two weeks, RT/75% RH) was “white”. For the same substance, the “DSC Max” value ([2]; two weeks, RT/75% RH) was 178.6 °C, the “DSC ΔH” value ([2]; two weeks, RT/75% RH) was 70.8 J/g and the IR ([2]; two weeks, RT/75% RH) was “~Ref”. For the same substance, the TGA <100° C. ([2]; two weeks, RT/75% RH) was 0.2%, the Appearance ([2]; two weeks, RT/<5% RH) was “white” and the “DSC Max” value ([2]; two weeks, RT/<5% RH) was 175.6 °C. For the same substance, the “DSC ΔH” value ([2]; two weeks, RT/<5% RH) was 78.7 J/g, the IR ([2]; two weeks, RT/<5% RH) was “~Ref” and the TGA <100° C. ([2]; two weeks, RT/<5% RH) was 0.3%. The Appearance [3, 5] was “white”, the “HPLC Sum of impurities” value [3, 5] was 1.41 and the Appearance ([3]; 40° C./75% RH, 2 weeks) was “white”. The “HPLC Sum of impurities” value ([3]; 40° C./75% RH, 2 weeks) was 0.98, the Appearance ([3]; 40° C./75% RH, 4 weeks) was “white” and the “HPLC Sum of impurities” value ([3]; 40° C./75% RH, 4 weeks) was 1.00. For the same substance, the Appearance ([3]; 40° C./75% RH, 8 weeks) was “white”, the “HPLC Sum of impurities” value ([3]; 40° C./75% RH, 8 weeks) was 1.09 and the Appearance ([3]; 50° C., 2 weeks) was “white”. For the same substance, the “HPLC Sum of impurities” value ([3]; 50° C., 2 weeks) was 1.06, the Appearance ([3]; 50° C., 4 weeks) was “white” and the “HPLC Sum of impurities” value ([3]; 50° C., 4 weeks) was 1.22. The Appearance ([3]; 50° C., 8 weeks) was “white”, the “HPLC Sum of impurities” value ([3]; 50° C., 8 weeks) was 1.25 and the Appearance ([3]; Artificial light (2 weeks)) was “white”. The “HPLC Sum of impurities” value ([3]; Artificial light (2 weeks)) was 1.57, the Appearance ([3]; Daylight, 2 weeks) was “white” and the “HPLC Sum of impurities” value ([3]; Daylight, 2 weeks) was 1.26. For the same substance, the Appearance ([3]; Daylight, 4 weeks) was “white”, the “HPLC Sum of impurities” value ([3]; Daylight, 4 weeks) was 1.65 and the Appearance ([3]; Daylight, 8 weeks) was “white-yellow”. The “HPLC Sum of impurities” value ([3]; Daylight, 8 weeks) was 1.74, the Appearance ([3]; Reference (2 weeks)) was “white” and the “HPLC Sum of impurities” value ([3]; Reference (2 weeks)) was 1.01. For the same substance, the chemical stability [3, 4] was “shows a sensitivity towards temperature and light”.
